The target of assay [1] is T1, Cbl-b (Homo sapiens, UniProt Q13191).
T1 construct: Cbl-b-HiBit KI Jurkat Cells were purchased from Promega; host or cells: Cbl-b-HiBiT knock-in Jurkat cells
The experiment in a line: Cbl-b Degradation Method A (FACS, anti-Cbl-b antibody staining). The assay is classed as cell-based. To be noted: Cbl-b-HiBit KI Jurkat Cells, incubated at least 20 hours; for DC50: half maximal degradation, read-out: Cbl-b Degredation Method A IC50; for Dmax: Jurkat, read-out: Cbl-b Degredation Method A Dmax (%). In short, it runs like this: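 Cbl-b-HiBit KI Jurkat cells treated with compound for at least 20 h at 37 °C, then fixed, permeabilized and stained with anti-Cbl-b antibody plus anti-rabbit AF488 secondary. Cbl-b levels read by FACS; DC50 and Dmax (percent of control) derived.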
In general terms: With HiBiT, luminescence reflects the tagged protein that the partner subunit can reach.

Assay [2] addresses T1, Cbl-b. The experiment in a line: Cbl-b Degradation Method B (Nano-Glo HiBiT lytic detection). To be noted: Cbl-b-HiBit KI Jurkat Cells, incubated at least 6-24 hours; for DC50: half maximal degradation, read-out: Cbl-b Degredation Method B IC50; for Dmax: read-out: Cbl-b Degredation Method B Dmax (%). The assay is classed as cell-based. In short, it runs like this: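 Cbl-b-HiBiT knock-in Jurkat cells (20,000/well) were treated after ~24 h plating with an 11-point 1:3 series for 6-24 h at 37° C. Remaining Cbl-b measured by Nano-Glo HiBiT lytic luminescence. DC50 and Dmax expressed as % of control.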

Structures are written as SMILES.

T1 sequence (Q13191 whole entry): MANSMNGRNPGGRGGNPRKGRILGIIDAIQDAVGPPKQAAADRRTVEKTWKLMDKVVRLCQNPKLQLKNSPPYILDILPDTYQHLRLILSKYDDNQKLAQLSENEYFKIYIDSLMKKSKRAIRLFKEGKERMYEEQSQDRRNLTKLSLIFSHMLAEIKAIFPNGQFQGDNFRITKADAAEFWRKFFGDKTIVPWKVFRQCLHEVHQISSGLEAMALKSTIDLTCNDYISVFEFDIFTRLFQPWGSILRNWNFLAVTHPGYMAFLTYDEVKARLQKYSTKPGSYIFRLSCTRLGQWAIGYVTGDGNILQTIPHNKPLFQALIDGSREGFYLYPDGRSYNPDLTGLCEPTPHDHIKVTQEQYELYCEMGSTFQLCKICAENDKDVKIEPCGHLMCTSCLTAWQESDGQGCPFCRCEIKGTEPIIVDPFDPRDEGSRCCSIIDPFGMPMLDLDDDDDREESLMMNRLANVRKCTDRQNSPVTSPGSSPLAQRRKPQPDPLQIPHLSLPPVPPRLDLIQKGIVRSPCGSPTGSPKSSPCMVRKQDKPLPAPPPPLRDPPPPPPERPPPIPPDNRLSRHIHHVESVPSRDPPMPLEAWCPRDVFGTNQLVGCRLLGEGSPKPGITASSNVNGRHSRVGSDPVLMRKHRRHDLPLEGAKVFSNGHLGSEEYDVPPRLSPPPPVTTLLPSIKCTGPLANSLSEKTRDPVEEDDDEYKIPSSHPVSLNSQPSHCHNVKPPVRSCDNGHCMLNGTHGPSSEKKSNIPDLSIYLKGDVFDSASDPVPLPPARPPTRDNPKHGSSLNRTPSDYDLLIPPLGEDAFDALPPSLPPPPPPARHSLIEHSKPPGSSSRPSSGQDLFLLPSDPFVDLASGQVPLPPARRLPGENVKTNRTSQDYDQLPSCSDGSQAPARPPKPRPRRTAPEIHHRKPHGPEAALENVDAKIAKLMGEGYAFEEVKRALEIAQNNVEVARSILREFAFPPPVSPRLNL

The term Dmax denotes the greatest extent of degradation seen. Consider `Cn1cnnc1C[C@]1(c2cccc(N3Cc4c(cc(N5CC6(CCN(CC7CCN(c8ccc9c(c8)C(=O)N(C8CCC(=O)NC8=O)C9=O)CC7)CC6)C5)cc4C(F)(F)F)C3=O)c2)C[C@H](C#N)C1` (stereo partly shown) [Example 136, (1r,3r)-3-(3-{6-[7-({1-[2-(2,6-dioxopiperidin-3-yl)-1,3-dioxo-2,3-dihydro-1H-isoindol-5-yl]piperidin-4-yl}methyl)-2,7-diazaspiro[3.5]nonan-2-yl]-1-oxo-4-(trifluoromethyl)-2,3-dihydro-1H-isoindol-2-yl}phenyl)-3-[(4-methyl-4H-1,2,4-triazol-3-yl)methyl]cyclobutane-1-carbonitrile], for which the DC50 in assay [1] and in assay [2] was 5 to 50 nM each time. Moreover, the Dmax in assay [1] (maximum degradation observed) and in assay [2] (maximum degradation observed) was 35 to 70% in each case.
As for `C[C@@H]1c2nc(N3CCC(O[C@H]4CC[C@H](CN5CCN(Cc6cc7c(c(C(F)(F)F)c6)CN(c6cccc(C8(Cc9nncn9C)CC(C#N)C8)c6)C7=O)C(C)(C)C5)CC4)CC3)ccc2C(=O)N1C1CCC(=O)NC1=O` (single isomer, unassigned) [Example 307, (1r***,3r***)-3-(3-{6-[(2,2-dimethyl-4-{[(1r**,4r**)-4-({1-[(7R*)-6-(2,6-dioxopiperidin-3-yl)-7-methyl-5-oxo-5H,6H,7H-pyrrolo[3,4-b]pyridin-2-yl]piperidin-4-yl}oxy)cyclohexyl]methyl}piperazin-1-yl)methyl]-1-oxo-4-(trifluoromethyl)-2,3-dihydro-1H-isoindol-2-yl}phenyl)-3-[(4-methyl-4H-1,2,4-triazol-3-yl)methyl]cyclobutane-1-carbonitrile], the DC50 in assay [1] is 50 to 500 nM; in assay [2] it was less than 5 nM. In assay [1] (maximum degradation observed), the “Cbl-b Degredation Method A Dmax (%)” value is listed as “B (35 < B < 70)”. In addition, the “Cbl-b Degredation Method B Dmax (%)” value in assay [2] (maximum degradation observed) was “C (C ≤ 35)”.
`Cn1cnnc1CC1(c2cccc(N3Cc4c(cc(CN5CCC(CN6CCN(c7ccc8c(c7)C(=O)N(C7CCC(=O)NC7=O)C8=O)CC6)CC5)cc4C(F)(F)F)C3=O)c2)COC1` (stereo not shown) [Example 28, 2-(2,6-dioxopiperidin-3-yl)-5-{4-[(1-{[2-(3-{3-[(4-methyl-4H-1,2,4-triazol-3-yl)methyl]oxetan-3-yl}phenyl)-3-oxo-7-(trifluoromethyl)-2,3-dihydro-1H-isoindol-5-yl]methyl}piperidin-4-yl)methyl]piperazin-1-yl}-2,3-dihydro-1H-isoindole-1,3-dione]: the DC50 in assay [1] and in assay [2] was greater than 500 nM throughout.
With `COc1c(N2CCC(CN3CCC4(CC3)CN(c3cc5c(c(C(F)(F)F)c3)CN(c3cccc(C6(Cc7nncn7C)COC6)c3)C5=O)C4)CC2)ccc2c1CN(C1CCC(=O)NC1=O)C2=O` (stereo not shown) [Example 8, 3-{4-methoxy-5-[4-({2-[2-(3-{3-[(4-methyl-4H-1,2,4-triazol-3-yl)methyl]oxetan-3-yl}phenyl)-3-oxo-7-(trifluoromethyl)-2,3-dihydro-1H-isoindol-5-yl]-2,7-diazaspiro [3.5]nonan-7-yl}methyl)piperidin-1-yl]-1-oxo-2,3-dihydro-1H-isoindol-2-yl}piperidine-2,6-dione], the DC50 is 5 to 50 nM in assay [1] and less than 5 nM in assay [2]. The Dmax in assay [1] (maximum degradation observed) was greater than 70%; in assay [2] (maximum degradation observed), 35 to 70%.
Turning to `Cn1cnnc1CC1(c2cccc(N3Cc4c(cc(CN5CCCC(CN6CCN(c7ccc8c(c7)C(=O)N(C7CCC(=O)NC7=O)C8=O)CC6)C5)cc4C(F)(F)F)C3=O)c2)COC1` (stereo not shown) [Example 76, 2-(2,6-dioxopiperidin-3-yl)-5-{4-[(1-{[2-(3-{3-[(4-methyl-4H-1,2,4-triazol-3-yl)methyl]oxetan-3-yl}phenyl)-3-oxo-7-(trifluoromethyl)-2,3-dihydro-1H-isoindol-5-yl]methyl}piperidin-3-yl)methyl]piperazin-1-yl}-2,3-dihydro-1H-isoindole-1,3-dione], the DC50 in assay [1] and in assay [2] was greater than 500 nM throughout.
